“And” between values parts separate entries of the source, which are not always exact repeats. Equal entries are not always repeated. Where two headings read alike, the source gives them in different places.
Columns and labels:
[1] = Ocular, retinal delivery of GGA by eye drop compared to systemic (PO) delivery, AUC (Example 21); format: in vivo; settings: for Kp(eye ball) / Kp(retina): 180 mg/kg PO
[2] = Intraocular GGA levels, topical ocular 5% GGA versus 200 mg/kg oral; format: in vivo; settings: topical ocular composition of 5% GGA vs 200 mg/kg GGA orally
Excerpt: The level achieved thereby into the ocular tissue was many-folds more, for example, about 5 times more than that achieved by systemic delivery by oral administration. […] Such is even more unexpected in view of the eye being a immunprotected organ which is predisposed to impede compounds from getting into the ocular tissue and to remove any compound entered into it.

[3] = system: HSP70; assay: HSP70 induction in eye balls by eye drops, ELISA normalized by total protein (Example 18); format: in vivo, Rat
Method: Eye drops were applied every hour either for 4 hours or for 8 hours. Animals were euthanized 4 hours, 8 hours or 24 hours after the first dosing, and the eye balls collected on ice. Eyes were homogenized with a polytron homogenizer in a standard lysis buffer containing proteinase inhibitors. HSP70 was quantified by a commercially available ELISA kit and normalized by total protein concentration in the sample.

[4] = system: HSP70; assay: HSP70 analysis by ELISA in rat eyes after eye drops (Example 17, Cohort 2); format: in vivo; settings: for Ratio: compound treated/vehicle treated, Average (AVE): HSP70, average of 4 rats; for Left (compound treated) AVE: HSP70, average of the left-eye values of Table 3 (pg/ml there); for Ratio treated eye/vehicle treated eye: HSP70, individual rat, left (compound) vs right (vehicle) eye; for HSP70: individual rat, compound-treated left eye, 5% eye drop 0.25 mg/eye per dose hourly, harvest time not stated
Method: (§1) In Cohort 2 the efficacy of Formulation 102 was tested against Formulation 101 and vehicle controls at different time points.
Cohort 2: HSP70 analysis for ELISA only
(§2) • Route: topical eye drop formulation • Frequency: 4 or 8 doses, every 1 hour • Dose Administration : under isofluorane anesthesia (2.5%) • Dose Volume: 5 μL in each eye
(§3) • Species: Rat • Strain: Sprague-Dawley • Supplier: Harlan • Sex: Male • Weight at Initiation: 200 to 220 g • Number of Animals: 12 for Cohort 1, 26 for Cohort 2

[5] = Rat ocular pharmacokinetics: GGA concentration in eye balls after topical eye drops (LC-MS/MS); format: in vivo; settings: for Mean of Duplicate / R/L: per rat; for Concentration: single determination; for R/L: ratio of right to left eye concentration
Method: as §1, §2, §3
Eye drops were applied every hour either for 4 hours or for 8 hours. Animals were euthanized 4 hours and 8 hours after the first dosing, and the eye balls collected on dry ice. Eyes were homogenized with a polytron homogenizer in ethanol. GGA was quantified in the eye ball lysates by liquid chromatography-tandem mass spectroscopy.

[6] = contralateral eye, 8 doses, group average of Table 7 means (ng/g there), in ng/g
[7] = left (treated) eye, 4 doses, harvest 4 h
[8] = left (treated) eye, 8 doses, harvest 8 h
[9] = left (treated) eye, 4 hourly doses 0.25 mg/eye, harvest 4 h
[10] = left (treated) eye, 8 hourly doses 0.25 mg/eye, harvest 8 h
[11] = right (contralateral) eye, 4 doses, harvest 4 h
[12] = right (contralateral) eye, 8 doses, harvest 8 h
[13] = treated eye, 8 doses, group average of Table 7 means (ng/g there), in ng/g

contra/ipsi AVE ([5]; 4 doses, 4 h)	contra/ipsi AVE ([5]; 8 doses, 8 h)	8 h contra AVE [5, 6]	Mean of Duplicate [5, 7]	R/L ([5]; 4 doses, 4 h)	R/L ([5]; 8 doses, 8 h)	8 h ispi AVE [5, 13]	Kp(eye ball) [1]	Kp(retina) [1]	SMILES	Ratio: compound treated/vehicle treated, Average (AVE) [4]	Left (compound treated) AVE [4]	Ratio treated eye/vehicle treated eye [4]	HSP70 [4]	Mean of Duplicate [5, 8]	Concentration [5, 9]	Concentration [5, 10]	Mean of Duplicate [5, 11]	Mean of Duplicate [5, 12]	other results
–	–	–	–	–	–	–	–	–	CC(=O)CCC=C(C)CC/C=C(\C)CC/C=C(\C)CCC=C(C)C (mixture of isomers) [GGA, Geranylgeranyl acetone]	–	–	–	–	–	–	–	–	–	delivery into the retina and the eyeball ([1]; eye drop): effective delivery; levels of geranylgeranyl acetone achieved intraocularly, topical vs oral [2]: about 5 fold
0.349	0.1718	2986.667	14722 ng/g and 15163 ng/g and 19992 ng/g	0.4357 and 0.2213 and 0.3901	0.1996 and 0.1209 and 0.1949	16846.83	0.71	2.21	CC(=O)CCC=C(C)CC/C=C(\C)CC/C=C(\C)CCC=C(C)C (mixture of isomers) [CNS-101, cis-trans geranylgeranyl acetone]	1.665	952.4506	1.003 and 2.135 and 1.544 and 1.976	589.4561 pg/mL and 1023.901 pg/mL and 1211.234 pg/mL and 985.2114 pg/mL	18546 ng/g and 13199 ng/g and 18795.5 ng/g	14635 ng/g and 14809 ng/g and 15206 ng/g and 15120 ng/g and 19608 ng/g and 20376 ng/g	18947 ng/g and 18145 ng/g and 12879 ng/g and 13519 ng/g and 18953 ng/g and 18638 ng/g	6414.5 ng/g and 3355 ng/g and 7799.5 ng/g	3701 ng/g and 1596 ng/g and 3663 ng/g	HSP70 expression in eye balls, mean ± SD ([3]; topical ocular 5% CNS-101, 4 hours): 50.7 ± 8.01 pg/mg protein; HSP70 expression in eye balls, mean ± SD ([3]; topical ocular 5% CNS-101, 8 hours): 55.9 ± 11.2 pg/mg protein; HSP70 expression in eye balls, mean ± SD ([3]; topical ocular 5% CNS-101, 24 hours): 50.5 ± 10.8 pg/mg protein; 4 h contra AVE ([5]; contralateral eye, 4 doses, group average of Table 7 means (ng/g there), in ng/g): 5856.333; concentration at 4 h ([5]; male, Sprague-Dawley, rat, eye balls, topical, CNS-101 concentrations in eye balls, mean ± SD, 4 × 5 ml 5% CNS-101, measured after 4 hrs): 16600 ng/g; concentration at 8 h ([5]; male, Sprague-Dawley, rat, eye balls, topical, CNS-101 concentrations in eye balls, mean ± SD, 8 × 5 ml 5% CNS-101, measured after 8 hrs): 16800 ng/g; 4 h ispi AVE ([5]; treated eye, 4 doses, group average of Table 7 means (ng/g there), in ng/g): 16625.67
0.3052	0.2617	2105	30309 ng/g and 21828 ng/g and 17344 ng/g	0.3848 and 0.2037 and 0.327	0.1144 and 0.2267 and 0.444	8769.833	0.19	0.79	CC(=O)CC/C=C(\C)CC/C=C(\C)CC/C=C(\C)CCC=C(C)C [CNS-102, (5E, 9E, 13E) geranylgeranyl acetone]	1.089	681.9337	0.5953 and 1.239 and 1.26 and 1.263	685.1953 pg/mL and 757.1621 pg/mL and 583.588 pg/mL and 701.7893 pg/mL	10746 ng/g and 8395 ng/g and 7168.5 ng/g	32854 ng/g and 27764 ng/g and 21506 ng/g and 22150 ng/g and 17494 ng/g and 17194 ng/g	12094 ng/g and 9398 ng/g and 8505 ng/g and 8285 ng/g and 7547 ng/g and 6790 ng/g	4447 ng/g and 5672 ng/g and 11663.5 ng/g	1229 ng/g and 1903.5 ng/g and 3182.5 ng/g	concentration at 4 h ([5]; male, Sprague-Dawley, rat, eye ball (contralateral eye), topical, 0.25 mg/eye, contralateral eye, 4 doses, group average of Table 7 means (ng/g there), read-out: 4 h contra AVE): 7260 ng/g; concentration at 4 h ([5]; male, Sprague-Dawley, rat, eye ball (treated, ipsilateral eye), topical, 0.25 mg/eye, treated eye, 4 doses, group average of Table 7 means (ng/g there), read-out: 4 h ispi AVE): 23200 ng/g

Source: US20130245126A1, “GERANYLGERANYLACETONE FORMULATIONS AND RETINAL DELIVERY THEREOF” (COYOTE PHARMACEUTICALS, INC., priority 2012, published 2013)
